Consider seven compounds from patent US11371077B2, “High throughput cell-based screening for aptamers” (MeiraGTx UK II Limited, priority 2016, dated 2022).

What all share (type): cell-based
One data set concerns gdg6-A8 riboswitch. The experiment in a line: Luciferase reporter assay, gdg6-A8 riboswitch, transfected HEK 293 cells. Particulars: for fold induction at 100 µM: Homo sapiens, HEK293, gdg6-A8 riboswitch, Prestwick library compounds at 100 μM, HEK 293. The text has this:
(§1) Riboswitches were constructed as described in PCT/US2016/016234 (in particular Examples 3 to 6), incorporated herein by reference. A truncated human beta-globin intron sequence was synthesized and inserted in the coding sequence of a firefly luciferase gene. A mutant human DHFR exon 2 was synthesized and inserted in the middle of this truncated beta-globin intron sequence using Golden gate cloning strategy. Aptamers including xpt-G/A^1, ydhl-G/A^2, yxj^3, add^4, gdg6-G/A^5 (citations for the aptamers are incorporated herein by reference) were synthesized as oligonucleotides (“oligos”) with 4 nucleotide overhang at the 5′ end that are complementary to two different BsaI sites individually (IDT), annealed and ligated to BsaI-digested mDHFR-Luci-acceptor vector.
(§2) 3.5×10^4 HEK 293 cells were plated in a 96-well flat bottom plate the day before transfection. Plasmid DNA (500 ng) was added to a tube or a 96-well U-bottom plate. Separately, TransIT-293 reagent (Mirus; 1.4 μL) was added to 50 μL Opti-mem I media (Life Technologies), and allowed to sit for 5 minutes at room temperature (RT). Then, 50 μL of this diluted transfection reagent was added to the DNA, mixed, and incubated at RT for 20 min. Finally, 7 μL of this solution was added to a well of cells in the 96-well plate.
(§3) 24 hours after media change, plates were removed from the incubator, and equilibrated to RT for several minutes on a lab bench, then aspirated. Glo-lysis buffer (Promega, 100 μL, RT) was added, and the plates maintained at RT for at least 5 minutes. Then, the well contents were mixed by 50 μL trituration, and 20 μL of each sample was mixed with 20 μL of bright-glo reagent (Promega) that had been diluted to 10% in glo-lysis buffer. 96 wells were spaced on an opaque white 384-well plate. Following a 5 min incubation at RT, luminescence was measured using a Tecan machine with 500 mSec read time. The luciferase activity was expressed as mean relative light unit (RLU)±S.D., and fold induction was calculated as the luciferase activity obtained with guanine treatment divided by luciferase activity obtained without guanine treatment.
In general terms: Reporter assays use an easily measured gene product as a stand-in for the process of interest.

The test system of a further data set is add-G6 riboswitch. In words: cells. Particulars: for fold induction at 100 µM: Homo sapiens.
Text: (§4) A truncated human beta-globin intron sequence was synthesized and inserted in the coding sequence of a firefly luciferase gene. A mutant human DHFR exon 2 was synthesized and inserted in the middle of this truncated beta-globin intron sequence using Golden gate cloning strategy. Aptamers including xpt-G/A^1, ydhl-G/A^2, yxj^3, add^4, gdg6-G/A^5 (citations for the aptamers are incorporated herein by reference) were synthesized as oligonucleotides (“oligos”) with 4 nucleotide overhang at the 5′ end that are complementary to two different BsaI sites individually (IDT), annealed and ligated to BsaI-digested mDHFR-Luci-acceptor vector.
(§5) 3.5×10^4 HEK 293 cells were plated in a 96-well flat bottom plate the day before transfection. Plasmid DNA (500 ng) was added to a tube or a 96-well U-bottom plate. […] Then, 50 μL of this diluted transfection reagent was added to the DNA, mixed, and incubated at RT for 20 min. Finally, 7 μL of this solution was added to a well of cells in the 96-well plate.
as §3, with “The luciferase activity was expressed as mean relative light unit (RLU)±S.D., and fold induction was calculated as the luciferase activity obtained with guanine treatment divided by luciferase activity obtained without guanine treatment.” left out

A further data set relates to yxj-A6 riboswitch. In words: cells. Particulars: for fold induction at 100 µM: Homo sapiens.
Text: as §4, §2
as §3, with “The luciferase activity was expressed as mean relative light unit (RLU)±S.D., and fold induction was calculated as the luciferase activity obtained with guanine treatment divided by luciferase activity obtained without guanine treatment.” left out

For a further data set, the system named is ydhl-G8 riboswitch. In words: Luciferase reporter assay, ydhl-G8 riboswitch, transfected HEK 293 cells. Particulars: for fold induction at 100 µM: Homo sapiens.
Text: as §4, §5, §3

In a further data set the test system is xpt-G17 riboswitch. The experiment in a line: Luciferase reporter assay, xpt-G17 riboswitch, transfected HEK 293 cells. Particulars: for response of guanine riboswitch xpt-G17 to compound (FIG. 1e): Prestwick library at 100 μM; for fold induction at 100 µM: Homo sapiens, HEK293, xpt-G17 riboswitch.
Text: as §4, §2, §3

A further data set has as its system gdg6-G8 riboswitch. In words: Luciferase reporter assay, gdg6-G8 riboswitch, transfected HEK 293 cells. Particulars: for fold induction at 100 µM: Homo sapiens, HEK293, gdg6-G8 riboswitch, Prestwick library compounds at 100 μM, HEK 293.
Text: as §1, §2, §3

In another data set the test system is xpt-A8 riboswitch. The experiment in a line: cells. Particulars: for fold induction at 100 µM: Homo sapiens.
Text: as §1, §2, §3

Another data set relates to add-A6 riboswitch. The experiment in a line: cells. Particulars: for fold induction at 100 µM: Homo sapiens.
Text: as §1, §2, §3

In data set [1] the test system is riboswitches with guanine aptamers. In words: Dose responses of constructs with different aptamer based riboswitches (FIG. 1b). Particulars: mammalian cells.
Text: as §4
3.5×10^4 HEK 293 cells were plated in a 96-well flat bottom plate the day before transfection. Plasmid DNA (500 ng) was added to a tube or a 96-well U-bottom plate. […] Then, 50 μL of this diluted transfection reagent was added to the DNA, mixed, and incubated at RT for 20 min. […]
24 hours after media change, plates were removed from the incubator, and equilibrated to RT for several minutes on a lab bench, then aspirated. […] Following a 5 min incubation at RT, luminescence was measured using a Tecan machine with 500 mSec read time. The luciferase activity was expressed as mean relative light unit (RLU)±S.D., and fold induction was calculated as the luciferase activity obtained with guanine treatment divided by luciferase activity obtained without guanine treatment.

In a further data set the test system is ydhl-A6 riboswitch. The experiment in a line: Luciferase reporter assay, ydhl-A6 riboswitch, transfected HEK 293 cells. Particulars: Homo sapiens, HEK293, read-out: Fold Induction of luciferase activity, ydhl-A6 riboswitch; Prestwick library compounds at 100 μM; HEK 293.
Text: as §4, §5, §3

The mark [2] stands for this setting: HEK293, read-out: Fold Induction of luciferase activity.
Setting [3] is: Prestwick library compounds at 100 μM, HEK 293, preliminary screen.
[4] abbreviates: HEK293, add-G6 riboswitch, Prestwick library compounds at 100 μM, HEK 293, read-out: Fold Induction of luciferase activity.
[5] abbreviates: HEK293, yxj-A6 riboswitch, Prestwick library compounds at 100 μM, HEK 293, read-out: Fold Induction of luciferase activity.
Where [6] appears, read: HEK293, xpt-A8 riboswitch, Prestwick library compounds at 100 μM, HEK 293, read-out: Fold Induction of luciferase activity.
[7] abbreviates: HEK293, add-A6 riboswitch, Prestwick library compounds at 100 μM, HEK 293, read-out: Fold Induction of luciferase activity.

Counter-ions that a name gives are not always drawn. Like-named read-outs stand apart in the source and are kept apart here.

For the compound thioguanosine, the “Fold Induction of luciferase activity” value came out at 20.1 fold with gdg6-A8 riboswitch (100 µM); 7.9 fold in the data set on add-G6 riboswitch (add-G6 riboswitch, Prestwick library compounds at 100 μM, HEK 293); 10.2 fold in the data set on yxj-A6 riboswitch (yxj-A6 riboswitch, Prestwick library compounds at 100 μM, HEK 293); 7.5 fold in the data set on ydhl-G8 riboswitch (ydhl-G8 riboswitch, Prestwick library compounds at 100 μM, HEK 293); 21.0 fold in the data set with xpt-G17 riboswitch (xpt-G17 riboswitch, Prestwick library compounds at 100 μM, HEK 293, preliminary screen); 15.9 fold in the data set on gdg6-G8 riboswitch (100 µM). The “Fold Induction of luciferase activity” value was found to be 11.8 fold with xpt-A8 riboswitch (xpt-A8 riboswitch, Prestwick library compounds at 100 μM, HEK 293) and 5.9 fold in the data set on add-A6 riboswitch (add-A6 riboswitch, Prestwick library compounds at 100 μM, HEK 293).
Take `Nc1nc2nc[nH]c2c(=O)[nH]1` [guanine]: the “response of riboswitches with guanine aptamers (reporter gene expression, FIG. 1b)” value in data set [1] is “responds”. In the data set on xpt-G17 riboswitch (preliminary screen), the “response of guanine riboswitch xpt-G17 to compound (FIG. 1e)” value is recorded as “responded”. Moreover, the “induction fold of luciferase reporter in response to guanine” value with xpt-G17 riboswitch (xpt-G17, high concentration of guanine) is 2000 fold.
Take `CN(C)CCCN1c2ccccc2Sc2ccccc21` [Promazine hydrochloride]: the fold induction at 100 µM with gdg6-A8 riboswitch was 12.6; in the data set on add-G6 riboswitch (setting [2]) it was 5.4; in the data set on yxj-A6 riboswitch (setting [2]), 6.6; in the data set on ydhl-G8 riboswitch (HEK293, ydhl-G8 riboswitch, Prestwick library compounds at 100 μM, HEK 293, read-out: Fold Induction of luciferase activity), 5.2; in the data set on xpt-G17 riboswitch (setting [3]) it was 3.7; in the data set on gdg6-G8 riboswitch it was 6.2. In addition, the fold induction at 100 µM with xpt-A8 riboswitch (setting [2]) amounted to 4.1; in the data set with add-A6 riboswitch (setting [2]) it was 10.5.
Take `Nc1nc2c(ncn2[C@@H]2O[C@H](CO)[C@@H](O)[C@H]2O)c(=O)[nH]1` [guanosine]: the “response of riboswitches with guanine aptamers (reporter gene expression, FIG. 1b)” value in [1] is “responds”.
Consider `Nc1nc2nn[nH]c2c(=O)[nH]1` [8-Azaguanine], for which the fold induction at 100 µM is 306 in the data set on gdg6-A8 riboswitch; 47.9 in the data set on add-G6 riboswitch (setting [2]); 55.6 with yxj-A6 riboswitch (setting [2]); 35.6 in the data set with ydhl-G8 riboswitch (setting [2]); 131 in the data set on xpt-G17 riboswitch (setting [3]); 3.7 in the data set with ydhl-A6 riboswitch. Moreover, the fold induction at 100 µM in the data set on gdg6-G8 riboswitch worked out at 42.3; with xpt-A8 riboswitch (setting [2]), 95.1; with add-A6 riboswitch (setting [2]), 22.1. Besides, the “response of guanine riboswitch xpt-G17 to compound (FIG. 1e)” value with xpt-G17 riboswitch (preliminary screen) is on record as “responded”.
For `S=c1nc[nH]c2nc[nH]c12` [Mercaptopurine], the fold induction at 100 µM in the data set on gdg6-A8 riboswitch was 17.2; in the data set on add-G6 riboswitch (setting [4]), 14.3; in the data set with yxj-A6 riboswitch (setting [5]), 10; with ydhl-G8 riboswitch (setting [2]), 3.6; in the data set on gdg6-G8 riboswitch, 16.2; in the data set with xpt-A8 riboswitch (setting [6]), 3.4. The fold induction at 100 µM in the data set with add-A6 riboswitch (setting [7]) stood at 15.
Turning to `CC(CN1c2ccccc2Sc2ccccc21)N(C)C` (centres unmarked) [Promethazine hydrochloride], the fold induction at 100 µM in the data set on gdg6-A8 riboswitch is 4.8; with add-G6 riboswitch (setting [4]) it was 6.7; with yxj-A6 riboswitch (setting [5]) it was 7.9; with xpt-G17 riboswitch (setting [3]) it was 5.3; in the data set with gdg6-G8 riboswitch, 6.5; with xpt-A8 riboswitch (setting [6]), 5.4. The fold induction at 100 µM in the data set with add-A6 riboswitch (setting [7]) came to 4.5.
